These results are taken from US20260285875A1, “INHIBITORS OF PARG” (858 Therapeutics, Inc., priority 2023, published 2026).

The target of the experiment is T1, cellular PARG (Homo sapiens, UniProt Q86W56).
T1 construct: endogenous in cells; host or cells: HeLa
T1 sequence (Q86W56 whole entry): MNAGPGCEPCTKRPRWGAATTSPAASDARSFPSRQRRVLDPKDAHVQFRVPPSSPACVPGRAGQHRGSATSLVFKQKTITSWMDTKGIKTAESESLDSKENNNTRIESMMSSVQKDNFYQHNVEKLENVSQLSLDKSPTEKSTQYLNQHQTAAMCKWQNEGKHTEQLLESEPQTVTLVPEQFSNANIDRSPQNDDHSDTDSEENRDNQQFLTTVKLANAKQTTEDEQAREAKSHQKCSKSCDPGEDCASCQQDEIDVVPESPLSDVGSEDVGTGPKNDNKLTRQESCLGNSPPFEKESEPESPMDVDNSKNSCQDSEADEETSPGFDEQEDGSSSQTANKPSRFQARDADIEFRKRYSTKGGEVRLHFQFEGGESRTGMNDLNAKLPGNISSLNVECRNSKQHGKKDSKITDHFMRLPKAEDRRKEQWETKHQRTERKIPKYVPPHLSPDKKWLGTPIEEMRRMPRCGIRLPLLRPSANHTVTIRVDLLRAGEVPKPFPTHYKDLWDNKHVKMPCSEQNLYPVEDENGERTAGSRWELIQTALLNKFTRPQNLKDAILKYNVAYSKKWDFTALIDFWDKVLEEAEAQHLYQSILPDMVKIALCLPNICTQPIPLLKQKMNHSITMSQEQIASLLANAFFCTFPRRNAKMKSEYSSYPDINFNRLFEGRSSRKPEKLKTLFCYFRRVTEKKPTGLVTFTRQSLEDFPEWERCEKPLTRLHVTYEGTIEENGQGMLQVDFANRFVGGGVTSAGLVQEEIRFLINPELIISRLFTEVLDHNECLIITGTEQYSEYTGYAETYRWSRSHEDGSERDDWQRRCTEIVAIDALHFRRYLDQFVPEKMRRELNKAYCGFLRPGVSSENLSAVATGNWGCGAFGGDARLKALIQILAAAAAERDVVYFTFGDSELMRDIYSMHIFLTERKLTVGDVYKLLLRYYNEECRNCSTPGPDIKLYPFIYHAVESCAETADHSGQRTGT
Briefly: Nuclear PAR accumulation assay (immunofluorescence high-content imaging, MMS-treated HeLa cells). The following applies: 1 hour compound then MMS 50 μg/mL for an additional hour. The format is cell-based. The procedure, abridged:
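HeLa cells pretreated with compound for 1 h at 37° C, then given 50 μg/mL MMS for another hour. After methanol fixation, PAR was immunostained with DAPI nuclear counterstain; per-nucleus intensity and percent PAR-positive cells were imaged at 20× (≥1,000 cells/well). IC50 from four-parameter logistic fit.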
In the case of `Cn1cc(CN2C(=O)c3cc(S(=O)(=O)NC4(C)CC4)ccc3N3C2=NC[C@H]3C#Cc2ccn(C)n2)cn1` [Example 65, (R)-1-((1-methyl-1H-pyrazol-3-yl)ethynyl)-4-((1-methyl-1H-pyrazol-4-yl)methyl)-N-(1-methylcyclopropyl)-5-oxo-1,2,4,5-tetrahydroimidazo[1,2-a]quinazoline-7-sulfonamide], the 50% inhibitory concentration (IC50) was less than 100 nM.
`Cn1cc(CN2C(=O)c3cc(S(=O)(=O)NC4(C)CC4)ccc3N3C2=NC[C@H]3C#Cc2ncn(C)n2)cn1` [Example 66, (R)-1-((1-methyl-1H-1,2,4-triazol-3-yl)ethynyl)-4-((1-methyl-1H-pyrazol-4-yl)methyl)-N-(1-methylcyclopropyl)-5-oxo-1,2,4,5-tetrahydroimidazo[1,2-a]quinazoline-7-sulfonamide] displayed an IC50 of less than 100 nM.
In turn, `Cn1cc(CN2C(=O)c3cc(S(=O)(=O)NC4(C)CC4)ccc3N3C2=NC[C@H]3C#Cc2ccccn2)cn1` [Example 67, (R)-4-((1-methyl-1H-pyrazol-4-yl)methyl)-N-(1-methylcyclopropyl)-5-oxo-1-(pyridin-2-ylethynyl)-1,2,4,5-tetrahydroimidazo[1,2-a]quinazoline-7-sulfonamide] showed an IC50 of less than 100 nM.
The compound `Cn1cc(CN2C(=O)c3cc(S(=O)(=O)NC4(C)CC4)ccc3N3C2=NC[C@H]3C#Cc2ncccn2)cn1` [Example 68, (R)-4-((1-methyl-1H-pyrazol-4-yl)methyl)-N-(1-methylcyclopropyl)-5-oxo-1-(pyrimidin-2-ylethynyl)-1,2,4,5-tetrahydroimidazo[1,2-a]quinazoline-7-sulfonamide] registered an IC50 of less than 100 nM.
For `Cn1cc(CN2C(=O)c3cc(S(=O)(=O)NC4(C)CC4)ccc3N3C2=NC[C@H]3C#CC(C)(C)O)cn1` [Example 69, (R)-1-(3-hydroxy-3-methylbut-1-yn-1-yl)-4-((1-methyl-1H-pyrazol-4-yl)methyl)-N-(1-methylcyclopropyl)-5-oxo-1,2,4,5-tetrahydroimidazo[1,2-a]quinazoline-7-sulfonamide], the IC50 is 100 to 1000 nM.
`CN1CCC([C@@H]2CN=C3N(Cc4cnn(C)c4)C(=O)c4cc(S(=O)(=O)NC5(C)CC5)ccc4N32)CC1` [Example 70, (R)-4-((1-methyl-1H-pyrazol-4-yl)methyl)-N-(1-methylcyclopropyl)-1-(1-methylpiperidin-4-yl)-5-oxo-1,2,4,5-tetrahydroimidazo[1,2-a]quinazoline-7-sulfonamide] returned a 50% inhibitory concentration (IC50) of 1000 to 10000 nM.
As to `C[C@@H]1CN=C2N(Cc3cnn(C)c3)C(=O)c3cc(S(=O)(=O)NC4(C)CC4)cc(N4CC[C@@H](N)C4)c3N21` [Example 71, (R)-9-((R)-3-aminopyrrolidin-1-yl)-1-methyl-4-((1-methyl-1H-pyrazol-4-yl)methyl)-N-(1-methylcyclopropyl)-5-oxo-1,2,4,5-tetrahydroimidazo[1,2-a]quinazoline-7-sulfonamide], the IC50 was 100 to 1000 nM.
Then `C#C[C@@H]1CN=C2N(Cc3cnn(C)c3)C(=O)c3cc(S(=O)(=O)NC4(C)CC4)cc(Br)c3N21` [Example 72, (R)-9-bromo-1-ethynyl-4-((1-methyl-1H-pyrazol-4-yl)methyl)-N-(1-methylcyclopropyl)-5-oxo-1,2,4,5-tetrahydroimidazo[1,2-a]quinazoline-7-sulfonamide], with less than 100 nM.
The value for `C[C@@H]1CN=C2N(Cc3cnn(C)c3)C(=O)c3cc(S(=O)(=O)NC4(C)COC4)ccc3N21` [Example 73, (R)-1-methyl-4-((1-methyl-1H-pyrazol-4-yl)methyl)-N-(3-methyloxetan-3-yl)-5-oxo-1,2,4,5-tetrahydroimidazo[1,2-a]quinazoline-7-sulfonamide] was 100 to 1000 nM.
Compound `C[C@@H]1CN=C2N(Cc3cnn(C)c3)C(=O)c3cc(S(=O)(=O)NC4(C)CC4)cc(N4CC(C)(N)C4)c3N21` [Example 74, (R)-9-(3-amino-3-methylazetidin-1-yl)-1-methyl-4-((1-methyl-1H-pyrazol-4-yl)methyl)-N-(1-methylcyclopropyl)-5-oxo-1,2,4,5-tetrahydroimidazo[1,2-a]quinazoline-7-sulfonamide] gave an IC50 of 1000 to 10000 nM.
In turn, `C[C@@H]1CN=C2N(Cc3cnn(C)c3)C(=O)c3cc(S(=O)(=O)NC4(C)CC4)cc(N4CC[C@H](N)C4)c3N21` [Example 75, (R)-9-((S)-3-aminopyrrolidin-1-yl)-1-methyl-4-((1-methyl-1H-pyrazol-4-yl)methyl)-N-(1-methylcyclopropyl)-5-oxo-1,2,4,5-tetrahydroimidazo[1,2-a]quinazoline-7-sulfonamide] showed an IC50 of 100 to 1000 nM.
The value for `C#C[C@@H]1CN=C2N(Cc3cnn(C)c3)C(=O)c3cc(S(=O)(=O)NC4(C)CC4)cc(C4=CCN(C)CC4)c3N21` [Example 76, (R)-1-ethynyl-9-(1-methyl-1,2,3,6-tetrahydropyridin-4-yl)-4-((1-methyl-1H-pyrazol-4-yl)methyl)-N-(1-methylcyclopropyl)-5-oxo-1,2,4,5-tetrahydroimidazo[1,2-a]quinazoline-7-sulfonamide] was less than 100 nM.
Turning to `Cn1cc(CN2C(=O)c3cc(S(=O)(=O)NC4(C)CC4)ccc3N3C2=NC[C@H]3C#Cc2cnccn2)cn1` [Example 77, (R)-4-((1-methyl-1H-pyrazol-4-yl)methyl)-N-(1-methylcyclopropyl)-5-oxo-1-(pyrazin-2-ylethynyl)-1,2,4,5-tetrahydroimidazo[1,2-a]quinazoline-7-sulfonamide], the IC50 was less than 100 nM.
Then `C[C@@H]1CN(c2cc(S(=O)(=O)NC3(C)CC3)cc3c2N2C(=NC[C@H]2C)N(Cc2cnn(C)c2)C3=O)CCN1` [Example 78, (R)-1-methyl-4-((1-methyl-1H-pyrazol-4-yl)methyl)-N-(1-methylcyclopropyl)-9-((R)-3-methylpiperazin-1-yl)-5-oxo-1,2,4,5-tetrahydroimidazo[1,2-a]quinazoline-7-sulfonamide], with 100 to 1000 nM.
Consider `C#C[C@@H]1CN=C2N(Cc3cnn(C)c3)C(=O)c3cc(S(=O)(=O)NC4(C)CC4)cc(C4=CCNCC4)c3N21` [Example 79, (R)-1-ethynyl-4-((1-methyl-1H-pyrazol-4-yl)methyl)-N-(1-methylcyclopropyl)-5-oxo-9-(1,2,3,6-tetrahydropyridin-4-yl)-1,2,4,5-tetrahydroimidazo[1,2-a]quinazoline-7-sulfonamide], for which the IC50 lay in the range of 100 to 1000 nM.
`C[C@@H]1CN=C2N(Cc3cnn(C)c3)C(=O)c3cc(S(=O)(=O)NC4(C)CC4)cc(C4=CCNCC4)c3N21` [Example 80, (R)-1-methyl-4-((1-methyl-1H-pyrazol-4-yl)methyl)-N-(1-methylcyclopropyl)-5-oxo-9-(1,2,3,6-tetrahydropyridin-4-yl)-1,2,4,5-tetrahydroimidazo[1,2-a]quinazoline-7-sulfonamide] returned an IC50 of 100 to 1000 nM.
Compound `CCN(CC)CC#C[C@@H]1CN=C2N(Cc3cnn(C)c3)C(=O)c3cc(S(=O)(=O)NC4(C)CC4)ccc3N21` [Example 81, (R)-1-(3-(diethylamino)prop-1-yn-1-yl)-4-((1-methyl-1H-pyrazol-4-yl)methyl)-N-(1-methylcyclopropyl)-5-oxo-1,2,4,5-tetrahydroimidazo[1,2-a]quinazoline-7-sulfonamide] gave an IC50 of less than 100 nM.
On to `C[C@@H]1CN=C2N(Cc3cnn(C)c3)C(=O)c3cc(S(=O)(=O)NC4(C)CC4)cc(N4CCN[C@@H](C)C4)c3N21` [Example 82, (R)-1-methyl-4-((1-methyl-1H-pyrazol-4-yl)methyl)-N-(1-methylcyclopropyl)-9-((S)-3-methylpiperazin-1-yl)-5-oxo-1,2,4,5-tetrahydroimidazo[1,2-a]quinazoline-7-sulfonamide], for which the IC50 fell in the range of 1000 to 10000 nM.
`Cn1cc(CN2C(=O)c3cc(S(=O)(=O)NC4(C)CC4)ccc3N3C2=NC[C@H]3C#Cc2nccn2C)cn1` [Example 83, (R)-1-((1-methyl-1H-imidazol-2-yl)ethynyl)-4-((1-methyl-1H-pyrazol-4-yl)methyl)-N-(1-methylcyclopropyl)-5-oxo-1,2,4,5-tetrahydroimidazo[1,2-a]quinazoline-7-sulfonamide] came in with an IC50 of less than 100 nM.
In the case of `Cc1nnc(N2C3=NC[C@@H](C)N3c3ccc(S(=O)(=O)NC4(C)CC4)cc32)s1` [Example 84, (R)-3-methyl-9-(5-methyl-1,3,4-thiadiazol-2-yl)-N-(1-methylcyclopropyl)-2,9-dihydro-3H-benzo[d]imidazo[1,2-a]imidazole-7-sulfonamide], the IC50 lay in the range of 100 to 1000 nM.
Consider `C[C@@H]1CCN=C2N(c3nnc(C(F)F)s3)c3cc(S(=O)(=O)NC4(C)CC4)ccc3N21` [Example 85], for which the IC50 is less than 100 nM.
Compound `CC1(NS(=O)(=O)c2ccc3c(c2)N(c2nnc(C(F)F)s2)C2=NOCCN23)CC1` [Example 86, 10-(5-(difluoromethyl)-1,3,4-thiadiazol-2-yl)-N-(1-methylcyclopropyl)-3,4-dihydro-10H-benzo[4,5]imidazo[2,1-c][1,2,4]oxadiazine-8-sulfonamide] showed an IC50 of less than 100 nM.
For the compound `Cn1cc(CN2C(=O)c3cc(S(=O)(=O)NC4(C)CC4)ccc3N3C2=NC[C@H]3C#CCN2CCCC2)cn1` [Example 87, (R)-4-((1-methyl-1H-pyrazol-4-yl)methyl)-N-(1-methylcyclopropyl)-5-oxo-1-(3-(pyrrolidin-1-yl)prop-1-yn-1-yl)-1,2,4,5-tetrahydroimidazo[1,2-a]quinazoline-7-sulfonamide], the IC50 is less than 100 nM.
The value for `C[C@@H]1CN(c2cc(S(=O)(=O)NC3(C)CC3)cc3c2N2C(=NC[C@H]2C)N(Cc2cnn(C)c2)C3=O)C[C@@H](C)N1` [Example 88, (R)-9-((3R,5R)-3,5-dimethylpiperazin-1-yl)-1-methyl-4-((1-methyl-1H-pyrazol-4-yl)methyl)-N-(1-methylcyclopropyl)-5-oxo-1,2,4,5-tetrahydroimidazo[1,2-a]quinazoline-7-sulfonamide] was less than 100 nM; that for `Cn1cc(CN2C(=O)c3cc(S(=O)(=O)NC4(C)CC4)ccc3N3C2=NC[C@H]3C#CC2CNC2)cn1` [Example 89, (R)-1-(azetidin-3-ylethynyl)-4-((1-methyl-1H-pyrazol-4-yl)methyl)-N-(1-methylcyclopropyl)-5-oxo-1,2,4,5-tetrahydroimidazo[1,2-a]quinazoline-7-sulfonamide] was 1000 to 10000 nM.
